Data set [1] has as its target 5-hydroxytryptamine receptor 4 (Cavia porcellus, UniProt O70528). It counts as cell membranes, Dunkin-Hartley, Striatum, Membrane. Note: in other assays of this panel Not Active means under 50% inhibition at 10 µM.
The target in data set [2] is T1, Vasoactive intestinal polypeptide receptor 1 (Homo sapiens, UniProt P32241). Note: in other assays of this panel Not Active means under 50% inhibition at 10 µM.
T1 sequence (P32241 whole entry): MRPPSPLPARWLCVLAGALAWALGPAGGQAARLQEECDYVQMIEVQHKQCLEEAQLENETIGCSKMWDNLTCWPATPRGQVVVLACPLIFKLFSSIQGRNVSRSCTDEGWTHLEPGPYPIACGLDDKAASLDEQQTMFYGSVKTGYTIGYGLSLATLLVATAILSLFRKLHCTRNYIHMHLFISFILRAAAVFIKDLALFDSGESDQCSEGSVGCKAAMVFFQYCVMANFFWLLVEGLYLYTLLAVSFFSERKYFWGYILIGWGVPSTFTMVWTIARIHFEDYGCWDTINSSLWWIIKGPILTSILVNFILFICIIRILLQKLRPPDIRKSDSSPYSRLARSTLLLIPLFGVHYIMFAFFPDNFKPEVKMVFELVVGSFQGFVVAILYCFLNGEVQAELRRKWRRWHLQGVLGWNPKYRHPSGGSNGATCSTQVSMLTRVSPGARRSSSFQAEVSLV
The format is cell membranes, Membrane. The note with it: ht-29.

A further data set deals with Cytochrome P450 3A4 (Homo sapiens, UniProt P08684). The note with it: bti-tn-5b1-4.
The target in the next data set is T2, Estrogen receptor (Homo sapiens, UniProt P03372). Note: in other assays of this panel Not Active means under 50% inhibition at 10 µM.
T2 sequence (P03372 whole entry): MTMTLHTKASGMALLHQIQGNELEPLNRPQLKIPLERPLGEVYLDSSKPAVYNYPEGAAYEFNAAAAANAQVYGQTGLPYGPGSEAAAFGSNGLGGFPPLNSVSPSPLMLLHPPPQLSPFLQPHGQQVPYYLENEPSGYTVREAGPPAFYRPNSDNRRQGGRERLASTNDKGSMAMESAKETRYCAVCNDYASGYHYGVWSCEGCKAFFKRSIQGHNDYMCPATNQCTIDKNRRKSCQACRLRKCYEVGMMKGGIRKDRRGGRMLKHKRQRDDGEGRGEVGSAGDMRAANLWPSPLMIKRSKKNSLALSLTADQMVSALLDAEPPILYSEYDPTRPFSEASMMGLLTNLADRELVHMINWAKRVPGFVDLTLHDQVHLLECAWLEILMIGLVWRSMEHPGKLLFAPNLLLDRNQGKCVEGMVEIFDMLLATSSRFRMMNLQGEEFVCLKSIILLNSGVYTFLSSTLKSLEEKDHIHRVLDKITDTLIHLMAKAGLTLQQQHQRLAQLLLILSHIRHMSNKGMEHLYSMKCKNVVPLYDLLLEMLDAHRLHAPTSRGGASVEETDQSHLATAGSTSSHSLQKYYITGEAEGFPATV
The following applies: sf9.

The next data set deals with Adenosine receptor A2a (Homo sapiens, UniProt P29274). Briefly: DRUGMATRIX: Adenosine A2A radioligand binding (ligand: […]). It counts as cell membranes, HEK293, Membrane. The note with it: hek293; Not Active = under 50% inhibition at 10 µM.
Another data set concerns the target Nitric oxide synthase 1 (Rattus norvegicus, UniProt P29476). It counts as tissue-based, Cerebellum. Note: in other assays of this panel Not Active means under 50% inhibition at 10 µM.
Data set [3] has as its target T3, C-X-C chemokine receptor type 1 (Homo sapiens, UniProt P25024). Note: in other assays of this panel Not Active means under 50% inhibition at 10 µM.
T3 sequence (P25024 whole entry): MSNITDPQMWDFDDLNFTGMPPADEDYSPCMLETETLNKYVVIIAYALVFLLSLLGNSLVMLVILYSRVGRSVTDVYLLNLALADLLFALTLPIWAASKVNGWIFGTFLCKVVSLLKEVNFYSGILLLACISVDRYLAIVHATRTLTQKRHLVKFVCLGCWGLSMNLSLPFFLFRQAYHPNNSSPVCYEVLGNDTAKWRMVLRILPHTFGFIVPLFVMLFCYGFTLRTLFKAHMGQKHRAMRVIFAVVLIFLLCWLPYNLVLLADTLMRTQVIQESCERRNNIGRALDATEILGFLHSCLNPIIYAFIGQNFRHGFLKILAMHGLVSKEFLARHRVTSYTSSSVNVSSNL

The target in data set [4] is T4, Muscarinic acetylcholine receptor M5 (Homo sapiens, UniProt P08912). Note: in other assays of this panel Not Active means under 50% inhibition at 10 µM.
T4 sequence (P08912 whole entry): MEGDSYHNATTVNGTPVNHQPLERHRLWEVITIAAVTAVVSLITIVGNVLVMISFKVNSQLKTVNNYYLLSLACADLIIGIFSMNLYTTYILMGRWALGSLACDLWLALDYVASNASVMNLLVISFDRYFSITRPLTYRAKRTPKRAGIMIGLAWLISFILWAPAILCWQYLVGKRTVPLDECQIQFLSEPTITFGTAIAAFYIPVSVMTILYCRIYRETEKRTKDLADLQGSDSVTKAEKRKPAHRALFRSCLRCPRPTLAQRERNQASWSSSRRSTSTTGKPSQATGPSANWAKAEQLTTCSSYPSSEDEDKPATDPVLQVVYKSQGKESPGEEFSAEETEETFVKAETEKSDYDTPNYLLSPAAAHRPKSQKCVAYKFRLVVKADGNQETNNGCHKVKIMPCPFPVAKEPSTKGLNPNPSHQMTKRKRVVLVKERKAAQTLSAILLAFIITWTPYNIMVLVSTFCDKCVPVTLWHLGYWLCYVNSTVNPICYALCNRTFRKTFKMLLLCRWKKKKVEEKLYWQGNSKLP
The format is cell membranes, CHO-K1, Membrane. The following applies: for Ki: read-out: Ki.

One may read the IC50 as the concentration that inhibits the measured activity by half. As a reminder, the Ki is the equilibrium dissociation constant of an inhibitor or competing ligand from its target.
Throughout, for Ki: in other assays of this panel Not Active means under 50% inhibition at 10 µM.

Chain of Nitric oxide synthase 1 (P29476 whole entry): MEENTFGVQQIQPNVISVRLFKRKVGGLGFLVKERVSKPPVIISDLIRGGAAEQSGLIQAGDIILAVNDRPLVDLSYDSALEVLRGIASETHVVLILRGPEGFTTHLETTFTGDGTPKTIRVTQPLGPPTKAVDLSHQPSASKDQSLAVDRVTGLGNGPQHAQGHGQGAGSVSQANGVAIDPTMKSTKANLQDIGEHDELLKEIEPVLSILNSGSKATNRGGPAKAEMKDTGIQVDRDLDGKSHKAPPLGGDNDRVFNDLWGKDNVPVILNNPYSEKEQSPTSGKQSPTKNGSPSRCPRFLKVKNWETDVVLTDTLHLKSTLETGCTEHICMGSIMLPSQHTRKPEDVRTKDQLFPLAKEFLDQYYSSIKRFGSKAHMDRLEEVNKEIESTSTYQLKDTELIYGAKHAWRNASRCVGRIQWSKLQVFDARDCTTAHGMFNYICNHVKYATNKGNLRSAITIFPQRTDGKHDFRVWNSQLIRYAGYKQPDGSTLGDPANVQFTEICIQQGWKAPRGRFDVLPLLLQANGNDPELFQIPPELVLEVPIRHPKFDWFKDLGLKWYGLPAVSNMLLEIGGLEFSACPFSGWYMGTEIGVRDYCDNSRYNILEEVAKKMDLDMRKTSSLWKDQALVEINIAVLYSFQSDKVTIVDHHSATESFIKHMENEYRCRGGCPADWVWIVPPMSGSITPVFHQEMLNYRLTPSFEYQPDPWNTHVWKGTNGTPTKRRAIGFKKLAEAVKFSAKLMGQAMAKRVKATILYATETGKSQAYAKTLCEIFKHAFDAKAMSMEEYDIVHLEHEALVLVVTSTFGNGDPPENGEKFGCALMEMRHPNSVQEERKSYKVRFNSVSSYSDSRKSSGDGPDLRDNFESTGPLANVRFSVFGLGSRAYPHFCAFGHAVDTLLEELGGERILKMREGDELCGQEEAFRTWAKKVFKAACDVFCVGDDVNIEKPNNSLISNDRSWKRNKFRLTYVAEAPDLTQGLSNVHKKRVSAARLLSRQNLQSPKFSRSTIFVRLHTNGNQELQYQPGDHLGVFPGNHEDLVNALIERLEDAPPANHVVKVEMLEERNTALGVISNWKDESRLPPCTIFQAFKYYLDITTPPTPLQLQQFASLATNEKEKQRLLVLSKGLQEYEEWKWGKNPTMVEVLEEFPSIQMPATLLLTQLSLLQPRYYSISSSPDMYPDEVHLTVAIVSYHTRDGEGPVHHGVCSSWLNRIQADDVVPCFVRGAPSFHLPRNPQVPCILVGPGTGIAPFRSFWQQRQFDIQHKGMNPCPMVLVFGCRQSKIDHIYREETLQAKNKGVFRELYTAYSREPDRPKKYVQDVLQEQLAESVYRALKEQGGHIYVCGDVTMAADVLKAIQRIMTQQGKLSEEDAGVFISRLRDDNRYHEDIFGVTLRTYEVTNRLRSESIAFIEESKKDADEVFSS
Chain of Adenosine receptor A2a (P29274 whole entry): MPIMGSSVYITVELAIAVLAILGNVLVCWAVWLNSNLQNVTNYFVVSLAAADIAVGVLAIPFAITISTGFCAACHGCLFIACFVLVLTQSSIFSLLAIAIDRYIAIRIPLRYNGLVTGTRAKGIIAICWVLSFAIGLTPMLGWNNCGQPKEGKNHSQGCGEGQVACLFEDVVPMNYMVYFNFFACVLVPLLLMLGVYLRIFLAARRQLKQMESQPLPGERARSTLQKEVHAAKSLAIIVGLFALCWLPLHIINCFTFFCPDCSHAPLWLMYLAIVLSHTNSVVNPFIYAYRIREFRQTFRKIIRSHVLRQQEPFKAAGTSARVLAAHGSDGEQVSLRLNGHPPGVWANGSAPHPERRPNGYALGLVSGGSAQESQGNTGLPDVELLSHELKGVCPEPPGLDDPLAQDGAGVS
Chain of Cytochrome P450 3A4 (P08684 whole entry): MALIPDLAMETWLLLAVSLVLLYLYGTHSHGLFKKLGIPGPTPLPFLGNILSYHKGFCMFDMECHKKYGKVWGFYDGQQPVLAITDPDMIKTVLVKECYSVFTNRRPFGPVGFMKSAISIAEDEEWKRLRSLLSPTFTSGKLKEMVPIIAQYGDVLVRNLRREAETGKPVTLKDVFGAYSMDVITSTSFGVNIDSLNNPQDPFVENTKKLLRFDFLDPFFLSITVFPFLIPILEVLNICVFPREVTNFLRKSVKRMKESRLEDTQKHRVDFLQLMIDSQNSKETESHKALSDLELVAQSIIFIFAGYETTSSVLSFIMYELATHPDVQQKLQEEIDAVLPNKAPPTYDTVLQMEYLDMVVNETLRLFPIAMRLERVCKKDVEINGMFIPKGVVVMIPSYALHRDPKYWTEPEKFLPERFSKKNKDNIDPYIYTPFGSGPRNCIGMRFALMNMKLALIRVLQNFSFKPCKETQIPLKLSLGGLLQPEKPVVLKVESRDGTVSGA
Chain of 5-hydroxytryptamine receptor 4 (O70528 whole entry): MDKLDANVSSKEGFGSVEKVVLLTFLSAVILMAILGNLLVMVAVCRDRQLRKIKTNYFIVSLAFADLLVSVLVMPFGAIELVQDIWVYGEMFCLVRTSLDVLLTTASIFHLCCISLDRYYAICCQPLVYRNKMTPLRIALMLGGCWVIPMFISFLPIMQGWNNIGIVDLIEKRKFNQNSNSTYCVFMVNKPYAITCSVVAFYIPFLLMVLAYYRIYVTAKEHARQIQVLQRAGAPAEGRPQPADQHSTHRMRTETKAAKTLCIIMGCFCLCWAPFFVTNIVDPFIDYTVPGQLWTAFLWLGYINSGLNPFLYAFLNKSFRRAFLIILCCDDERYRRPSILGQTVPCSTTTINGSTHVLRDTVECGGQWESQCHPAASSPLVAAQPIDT

As to `CN1C[C@@H]2C[C@H]1CN2c1cc2c(cc1F)c(=O)c(C(=O)O)cn2C1CC1` [DANOFLOXACIN], the IC50 result (in data set [1]; in data set [2]; against Cytochrome P450 3A4; against Estrogen receptor; on Adenosine receptor A2a; on Nitric oxide synthase 1) was “Not Active” in each case. In addition, the IC50 result in data set [3] and in data set [4] (cho-k1) was “Not Active” throughout. Also, the Ki result on Cytochrome P450 3A4 is on record as “Not Active”.
Consider `O=C(O)c1cc(-c2ccc(F)cc2F)ccc1O` [DIFLUNISAL], for which the IC50 result (in data set [1]; in data set [2]; against Cytochrome P450 3A4; against Estrogen receptor; at Adenosine receptor A2a; against Nitric oxide synthase 1) was “Not Active” in each case. The IC50 entry in data set [3] and in data set [4] (cho-k1) was “Not Active” throughout. On Cytochrome P450 3A4, the inhibition constant Ki result is “Not Active”.
For `CC1=NN(c2ccccc2)C(=O)C1` [EDARAVONE], the IC50 result (in data set [1]; in data set [2]; on Cytochrome P450 3A4; against Estrogen receptor; at Adenosine receptor A2a; at Nitric oxide synthase 1) was “Not Active” each time. For the same compound, the IC50 result in data set [3] and in data set [4] (cho-k1) was “Not Active” in each case. Also, the Ki entry on Cytochrome P450 3A4 was “Not Active”.
Regarding `CN1CCN(c2c(F)cc3c(=O)c(C(=O)O)cn(CCF)c3c2F)CC1` [FLEROXACIN], the IC50 entry (in data set [1]; in data set [2]; against Cytochrome P450 3A4; at Estrogen receptor; at Adenosine receptor A2a; against Nitric oxide synthase 1) was “Not Active” in each case. The IC50 result in data set [3] and in data set [4] (cho-k1) was “Not Active” in each case. Moreover, the Ki result at Cytochrome P450 3A4 is given as “Not Active”.
As to `O=c1[nH]c(=O)n([C@H]2C[C@H](O)[C@@H](CO)O2)cc1F` [FLOXURIDINE], the IC50 entry (in data set [1]; in data set [2]; at Cytochrome P450 3A4; on Estrogen receptor; on Adenosine receptor A2a; on Nitric oxide synthase 1) was “Not Active” in each case. The half-inhibitory concentration (IC50) result in data set [3] and in data set [4] (cho-k1) was “Not Active” in each case. At Cytochrome P450 3A4, the Ki entry is “Not Active”.
For the compound `COC(=O)Nc1nc2cc(C(=O)c3ccc(F)cc3)ccc2[nH]1` [FLUBENDAZOLE], the IC50 result (in data set [1]; in data set [2]; against Cytochrome P450 3A4; against Estrogen receptor; at Adenosine receptor A2a; against Nitric oxide synthase 1) was “Not Active” each time. The IC50 result in data set [3] and in data set [4] (cho-k1) was “Not Active” in each case. For the same compound, the Ki result at Cytochrome P450 3A4 is “Not Active”.
`CC(=O)OCC(=O)[C@@]1(O)CC[C@H]2[C@@H]3CCC4=CC(=O)CC[C@]4(C)[C@@]3(F)[C@@H](O)C[C@@]21C` [FLUDROCORTISONE ACETATE]: the IC50 entry (in data set [1]; in data set [2]; at Cytochrome P450 3A4; against Estrogen receptor; at Adenosine receptor A2a; on Nitric oxide synthase 1) was “Not Active” throughout. In addition, the IC50 result in data set [3] and in data set [4] (cho-k1) was “Not Active” throughout. For the same compound, the Ki entry at Cytochrome P450 3A4 is “Not Active”.
`CCOC(=O)c1ncn2c1CN(C)C(=O)c1cc(F)ccc1-2` [FLUMAZENIL]: the IC50 result (in data set [1]; in data set [2]; at Cytochrome P450 3A4; against Estrogen receptor; at Adenosine receptor A2a; on Nitric oxide synthase 1) was “Not Active” throughout. Moreover, the IC50 result in data set [3] and in data set [4] (cho-k1) was “Not Active” throughout. The inhibitory constant (Ki) entry on Cytochrome P450 3A4 is recorded as “Not Active”.
Regarding `Cc1ccc(C)c(OCCCC(C)(C)C(=O)O)c1` [GEMFIBROZIL], the IC50 entry (in data set [1]; in data set [2]; at Cytochrome P450 3A4; at Estrogen receptor; on Adenosine receptor A2a; on Nitric oxide synthase 1) was “Not Active” in each case. In addition, the IC50 entry in data set [3] and in data set [4] (cho-k1) was “Not Active” in each case. The Ki entry at Cytochrome P450 3A4 was “Not Active”.
Regarding `CCC1=C(C)CN(C(=O)NCCc2ccc(S(=O)(=O)NC(=O)N[C@H]3CC[C@H](C)CC3)cc2)C1=O` [GLIMEPIRIDE], the IC50 entry (in data set [1]; in data set [2]; on Cytochrome P450 3A4; against Estrogen receptor; at Adenosine receptor A2a; at Nitric oxide synthase 1) was “Not Active” throughout. Moreover, the IC50 result in data set [3] and in data set [4] (cho-k1) was “Not Active” each time. Further, the Ki entry at Cytochrome P450 3A4 is listed as “Not Active”.
On to `Nc1cc(-c2ccncc2)c[nH]c1=O` [INAMRINONE], for which the IC50 entry (in data set [1]; in data set [2]; against Cytochrome P450 3A4; on Estrogen receptor; on Adenosine receptor A2a; against Nitric oxide synthase 1) was “Not Active” each time. Besides, the IC50 result in data set [3] and in data set [4] (cho-k1) was “Not Active” each time. For the same compound, the Ki entry on Cytochrome P450 3A4 is reported as “Not Active”.
Consider `CCCCC1=NC2(CCCC2)C(=O)N1Cc1ccc(-c2ccccc2-c2nnn[nH]2)cc1` [IRBESARTAN], for which the IC50 result (in data set [1]; in data set [2]; against Cytochrome P450 3A4; at Estrogen receptor; on Adenosine receptor A2a; against Nitric oxide synthase 1) was “Not Active” throughout. The 50% inhibitory concentration (IC50) entry in data set [3] and in data set [4] (cho-k1) was “Not Active” in each case. For the same compound, on Cytochrome P450 3A4, the Ki result is reported as “Not Active”.
In the case of `CN1CCC(=C2c3ccccc3CC(=O)c3sccc32)CC1` [KETOTIFEN], the half-inhibitory concentration (IC50) entry (in data set [1]; in data set [2]; against Cytochrome P450 3A4; against Estrogen receptor; at Adenosine receptor A2a; on Nitric oxide synthase 1) was “Not Active” in each case. Besides, the IC50 in data set [4] (read-out: IC50) turned out to be 374 nM. Besides, the Ki entry on Cytochrome P450 3A4 was “Not Active”; in data set [3] it was “Not Active”; in data set [4], 269 nM.
With `CCn1cc(C(=O)O)c(=O)c2cc(F)c(N3CCNC(C)C3)c(F)c21` (configuration not stated) [LOMEFLOXACIN], the IC50 result (in data set [1]; in data set [2]; at Cytochrome P450 3A4; against Estrogen receptor; on Adenosine receptor A2a; at Nitric oxide synthase 1) was “Not Active” in each case. The IC50 result in data set [3] and in data set [4] (cho-k1) was “Not Active” each time. For the same compound, the Ki entry at Cytochrome P450 3A4 is on record as “Not Active”.
With `CN1CCCC(CN2c3ccccc3Sc3ccccc32)C1` (configuration not stated) [MEPAZINE], the IC50 entry (in data set [1]; in data set [2]; on Cytochrome P450 3A4; at Estrogen receptor; at Adenosine receptor A2a; on Nitric oxide synthase 1) was “Not Active” throughout. Also, the IC50 result in data set [3] is “Not Active”; in data set [4] (read-out: IC50), 40 nM. Further, the Ki result at Cytochrome P450 3A4 is “Not Active”; in data set [4] it was 28 nM.
